Laboratory results published in patent publication US20260317324A1, “BIFUNCTIONAL COMPOUNDS FOR DEGRADING BRAF VIA UBIQUITIN PROTEOSOME PATHWAY” (Nurix Therapeutics, Inc., priority 2023, published 2026).

Tests used:
Format in all cases: cell-based
BRAF D594G = target: T1, BRAF D594G (Homo sapiens, UniProt P15056, D594G); assay: BRAF HiBiT degradation assay, C-terminal HiBiT-tagged BRAF D594G overexpressed in HCT-116 BRAF−/− cells (clone 63), Nano-Glo HiBiT Lytic assay
T1 construct: Horizon Discovery (HCT-116 BRAF−/− cells); host or cells: HCT-116 BRAF−/− cells, clone 63, lentiviral transduction
T1 sequence (P15056 whole entry D594G): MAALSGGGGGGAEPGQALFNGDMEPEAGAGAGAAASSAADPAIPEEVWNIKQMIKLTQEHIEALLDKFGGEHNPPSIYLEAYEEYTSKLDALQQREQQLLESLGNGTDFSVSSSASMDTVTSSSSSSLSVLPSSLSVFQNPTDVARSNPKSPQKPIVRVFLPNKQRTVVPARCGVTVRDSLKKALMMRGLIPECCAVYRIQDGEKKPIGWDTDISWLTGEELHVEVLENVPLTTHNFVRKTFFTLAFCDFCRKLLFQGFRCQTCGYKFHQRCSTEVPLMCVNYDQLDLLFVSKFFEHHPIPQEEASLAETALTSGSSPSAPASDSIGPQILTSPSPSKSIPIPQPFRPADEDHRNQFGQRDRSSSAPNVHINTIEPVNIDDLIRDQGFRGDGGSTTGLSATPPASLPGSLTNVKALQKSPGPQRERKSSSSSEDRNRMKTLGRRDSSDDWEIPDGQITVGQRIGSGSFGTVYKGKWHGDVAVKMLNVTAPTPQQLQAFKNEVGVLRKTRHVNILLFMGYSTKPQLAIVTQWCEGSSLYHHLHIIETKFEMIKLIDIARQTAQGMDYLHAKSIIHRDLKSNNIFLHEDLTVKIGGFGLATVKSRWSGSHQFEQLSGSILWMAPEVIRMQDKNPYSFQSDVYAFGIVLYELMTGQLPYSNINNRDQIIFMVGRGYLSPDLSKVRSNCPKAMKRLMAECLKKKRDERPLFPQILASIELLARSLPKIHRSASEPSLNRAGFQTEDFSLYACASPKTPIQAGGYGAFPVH
How it was run: (§1)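 Cells 3,000/well, 24 h at 37 °C; cpds 1 μM–0.01 nM, 11-pt half-log, duplicate, 0.2% DMSO. Readout: HiBiT lytic luminescence, 10 min at RT. Normalized to DMSO-treated tagged cells, with DMSO-treated wild-type HCT-116 as background. DC50 = fitted concentration at Y=50; Obs. Dmax = % degraded at maximal effect.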

BRAF G466V = target: T2, BRAF G466V (Homo sapiens, UniProt P15056, G466V); assay: BRAF HiBiT degradation assay, C-terminal HiBiT-tagged BRAF G466V overexpressed in HCT-116 BRAF−/− cells (clone 8), Nano-Glo HiBiT Lytic assay
T2 construct: Horizon Discovery (HCT-116 BRAF−/− cells); host or cells: HCT-116 BRAF−/− cells, clone 8, lentiviral transduction
T2 sequence (P15056 whole entry G466V): as the sequence (P15056 whole entry D594G) above, with G466V, G594D counted along it
How it was run: as §1

BRAF V600E = target: T3, BRAF V600E (Homo sapiens, UniProt P15056, V600E); assay: BRAF HiBiT degradation assay, C-terminal HiBiT-tagged BRAF V600E A375 cells (clone 1F10), Nano-Glo HiBiT Lytic assay; details: for Dmax: A-375
T3 construct: endogenous C-terminal HiBiT fusion tag on BRAF V600E allele; endogenous in cells; host or cells: A375 clone 1F10 (CRISPR-Cas9 knock-in of the HiBiT tag; parental A375 from ATCC)
T3 sequence (P15056 whole entry V600E, the tested form may be a part): as the sequence (P15056 whole entry D594G) above, with G594D, V600E counted along it
How it was run: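 Luminescence read-out: Nano-Glo HiBiT lytic reagent with LgBiT, 10 min at room temperature. Signal normalised to DMSO-treated tagged cells, with wildtype A375 as background. Cells are endogenously tagged BRAF V600E A375 clone 1F10. Compounds were tested from 1 μM to 0.01 nM; Dmax is observed % degraded at maximal effect.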

BRAF G469A = target: T4, BRAF G469A (Homo sapiens, UniProt P15056, G469A); assay: BRAF HiBiT degradation assay, C-terminal HiBiT-tagged BRAF G469A overexpressed in HCT-116 BRAF−/− cells (clone 34), Nano-Glo HiBiT Lytic assay
T4 construct: Horizon Discovery (HCT-116 BRAF−/− cells); host or cells: HCT-116 BRAF−/− cells, clone 34, lentiviral transduction
T4 sequence (P15056 whole entry G469A): as the sequence (P15056 whole entry D594G) above, with G469A, G594D counted along it
How it was run: as §1

[1] = BRAF D594G, DC50 at 50%: fitted conc. at Y=50
[2] = HCT-116, BRAF D594G, percentage protein degraded at maximal compound effect relative to DMSO
[3] = BRAF G466V, DC50 at 50%: fitted conc. at Y=50
[4] = HCT-116, BRAF G466V, percentage protein degraded at maximal compound effect relative to DMSO
[5] = A375 (BRAF V600E), DC50 at 50%: fitted conc. at Y=50
[6] = A375 (BRAF V600E), percentage protein degraded at maximal compound effect relative to DMSO
[7] = Class 2, BRAF G469A, DC50 at 50%: fitted conc. at Y=50
[8] = HCT-116, Class 2, BRAF G469A, percentage protein degraded at maximal compound effect relative to DMSO

| SMILES | DC50 (BRAF D594G; [1]) | Dmax (BRAF D594G; [2]) | DC50 (BRAF G466V; [3]) | Dmax (BRAF G466V; [4]) | DC50 (BRAF V600E; [5]) | Dmax (BRAF V600E; [6]) | DC50 (BRAF G469A; [7]) | Dmax (BRAF G469A; [8]) | DC50 (BRAF D594G; BRAF D594G (Class 3), HCT-116 BRAF−/− cells, DC50 at 50% degradation) | Dmax (BRAF D594G; BRAF D594G (Class 3), HCT-116 BRAF−/− cells, observed Dmax relative to DMSO control) | DC50 (BRAF G466V; BRAF G466V (Class 3), HCT-116 BRAF−/− cells, DC50 at 50% degradation) | Dmax (BRAF G466V; BRAF G466V (Class 3), HCT-116 BRAF−/− cells, observed Dmax relative to DMSO control) | DC50 (BRAF V600E; A375 (BRAF V600E, Class 1), DC50 at 50% degradation) | Dmax (BRAF V600E; A375 (BRAF V600E, Class 1), observed Dmax, % protein degraded relative to DMSO control) | DC50 (BRAF G469A; BRAF G469A (Class 2), HCT-116 BRAF−/− cells, DC50 at 50% degradation) | Dmax (BRAF G469A; BRAF G469A (Class 2), HCT-116 BRAF−/− cells, observed Dmax relative to DMSO control) |
| --- | --- | --- | --- | --- | --- | --- | --- | --- | --- | --- | --- | --- | --- | --- | --- | --- |
| CCCS(=O)(=O)Nc1cccc(-c2nc(C3CCC4(CC3)CCN(C(=O)C3CCN(c5ccc6c(c5)C(=O)N(C5CCC(=O)NC5=O)C6=O)CC3)CC4)sc2-c2ccnc(N)n2)c1F (racemic) [Compound 245, Rac-N-{3-[5-(2-aminopyrimidin-4-yl)-2-[3-(1-{2-[(3R)-2,6-dioxopiperidin-3-yl]-1,3-dioxo-2,3-dihydro-1H-isoindol-5-yl}piperidine-4-carbonyl)-3-azaspiro[5.5]undecan-9-yl]-1,3-thiazol-4-yl]-2-fluorophenyl}propane-1-sulfonamide] | < 10 nM | 30 to 70% | > 500 nM | 30 to 70% | < 10 nM | > 70% | > 500 nM | 30 to 70% | – | – | – | – | – | – | – | – |
| CCCS(=O)(=O)Nc1cccc(-c2nc(C3CCN(C(=O)C4(C)CCN(C(=O)C5CCN(c6ccc(C7CCC(=O)NC7=O)cn6)CC5)CC4)CC3)sc2-c2ccncn2)c1F (racemic) [Compound 181, Rac-N-[3-(2-{1-[1-(1-{5-[(3R)-2,6-dioxopiperidin-3-yl]pyridin-2-yl}piperidine-4-carbonyl)-4-methylpiperidine-4-carbonyl]piperidin-4-yl}-5-(pyrimidin-4-yl)-1,3-thiazol-4-yl)-2-fluorophenyl]propane-1-sulfonamide] | < 10 nM | > 70% | < 10 nM | > 70% | < 10 nM | > 70% | > 500 nM | 30 to 70% | – | – | – | – | – | – | – | – |
| CCCS(=O)(=O)Nc1cccc(-c2nc(C(C)(C)C)sc2-c2ccnc(Nc3ccc(N4CCN(C(=O)CC5CCN(c6ccc(NC7CCC(=O)NC7=O)cc6)CC5)CC4)c(F)c3)n2)c1F (racemic) [Compound 46, Rac-N-{3-[2-tert-butyl-5-(2-{[4-(4-{2-[1-(4-{[(3R)-2,6-dioxopiperidin-3-yl]amino}phenyl)piperidin-4-yl]acetyl}piperazin-1-yl)-3-fluorophenyl]amino}pyrimidin-4-yl)-1,3-thiazol-4-yl]-2-fluorophenyl}propane-1-sulfonamide] | 50 to 500 nM | 30 to 70% | < 10 nM | 30 to 70% | < 10 nM | > 70% | > 500 nM | 30 to 70% | – | – | – | – | – | – | – | – |
| CCCS(=O)(=O)Nc1cccc(-c2cn(-c3ccc(N4CCN(CC5CCN(c6ccc(C7CCC(=O)NC7=O)cc6F)CC5)CC4)cc3)nc2-c2ccncc2)c1F (racemic) [Compound 18, Rac-N-{3-[1-(4-{4-[(1-{4-[(3R)-2,6-dioxopiperidin-3-yl]-2-fluorophenyl}piperidin-4-yl)methyl]piperazin-1-yl}phenyl)-3-(pyridin-4-yl)-1H-pyrazol-4-yl]-2-fluorophenyl}propane-1-sulfonamide] | 10 to 50 nM | 30 to 70% | 10 to 50 nM | 30 to 70% | 10 to 50 nM | > 70% | > 500 nM | 30 to 70% | – | – | – | – | – | – | – | – |
| CCN(C)S(=O)(=O)Nc1cccc(-c2nc(C(C)(C)C)sc2-c2ccnc(Nc3ccc(N4CCN(CC5CCN(c6ccc(C7CCC(=O)NC7=O)cn6)CC5)CC4)cn3)n2)c1F (racemic) [Compound 126, Rac-(3S)-3-{6-[4-({4-[6-({4-[2-tert-butyl-4-(3-{[ethyl(methyl)sulfamoyl]amino}-2-fluorophenyl)-1,3-thiazol-5-yl]pyrimidin-2-yl}amino)pyridin-3-yl]piperazin-1-yl}methyl)piperidin-1-yl]pyridin-3-yl}piperidine-2,6-dione] | < 10 nM | 30 to 70% | 10 to 50 nM | > 70% | 10 to 50 nM | > 70% | 10 to 50 nM | 30 to 70% | – | – | – | – | – | – | – | – |
| CCCS(=O)(=O)Nc1cccc(-c2cn(-c3ccc(C4CCN(CC5CCN(c6ccc(C7CCC(=O)NC7=O)c(F)c6)CC5)CC4)cc3)nc2-c2ccncc2)c1F (racemic) [Compound 23, Rac-N-{3-[1-(4-{1-[(1-{4-[(3R)-2,6-dioxopiperidin-3-yl]-3-fluorophenyl}piperidin-4-yl)methyl]piperidin-4-yl}phenyl)-3-(pyridin-4-yl)-1H-pyrazol-4-yl]-2-fluorophenyl}propane-1-sulfonamide] | > 500 nM | 30 to 70% | 10 to 50 nM | 30 to 70% | 10 to 50 nM | > 70% | > 500 nM | < 30% | – | – | – | – | – | – | – | – |
| O=C1CCN(c2ccc(N3CCC(CN4CCN(c5ccc(-n6cc(-c7cc(Cl)cc(NS(=O)(=O)N8CCCC8)c7F)c(-c7ccncc7)n6)cc5)CC4)CC3)cc2)C(=O)N1 [Compound 283, N-[5-chloro-3-(1-{4-[4-({1-[4-(2,4-dioxo-1,3-diazinan-1-yl)phenyl]piperidin-4-yl}methyl)piperazin-1-yl]phenyl}-3-(pyridin-4-yl)-1H-pyrazol-4-yl)-2-fluorophenyl]pyrrolidine-1-sulfonamide] | – | – | – | – | – | – | – | – | < 10 nM | 30 to 70% | < 10 nM | > 70% | < 10 nM | > 70% | > 500 nM | 30 to 70% |
| CCCS(=O)(=O)Nc1cccc(-c2nc(C(C)(C)C)sc2-c2ccnc(NC3CC4(CCN(CC5CCN(c6ccc7c(=O)n(C8CCC(=O)NC8=O)ccc7c6)CC5)CC4)C3)n2)c1F (racemic) [Compound 129, Rac-N-(3-{2-tert-butyl-5-[2-({7-[(1-{2-[(3R)-2,6-dioxopiperidin-3-yl]-1-oxo-1,2-dihydroisoquinolin-6-yl}piperidin-4-yl)methyl]-7-azaspiro[3.5]nonan-2-yl}amino)pyrimidin-4-yl]-1,3-thiazol-4-yl}-2-fluorophenyl)propane-1-sulfonamide] | > 500 nM | < 30% | > 500 nM | < 30% | 50 to 500 nM | 30 to 70% | > 500 nM | < 30% | – | – | – | – | – | – | – | – |
| CCCS(=O)(=O)Nc1cccc(-c2nc(C3CCN(C(=O)C4CCN(C(=O)CC5CCN(c6ccc(C7CCC(=O)NC7=O)cn6)CC5)CC4)CC3)sc2-c2ccnc(N)n2)c1F (racemic) [Compound 203, Rac-N-{3-[5-(2-aminopyrimidin-4-yl)-2-(1-{1-[2-(1-{5-[(3R)-2,6-dioxopiperidin-3-yl]pyridin-2-yl}piperidin-4-yl)acetyl]piperidine-4-carbonyl}piperidin-4-yl)-1,3-thiazol-4-yl]-2-fluorophenyl}propane-1-sulfonamide] | < 10 nM | 30 to 70% | < 10 nM | > 70% | < 10 nM | > 70% | > 500 nM | 30 to 70% | – | – | – | – | – | – | – | – |
| CCCS(=O)(=O)Nc1cccc(-c2nc(C3CCN(C(=O)CN4CCC5(CC4)CN(c4ccc6c(c4)C(=O)N(C4CCC(=O)NC4=O)C6=O)C5)CC3)sc2-c2ccnc(NC)n2)c1F (racemic) [Compound 219, Rac-N-[3-(2-{1-[2-(2-{2-[(3R)-2,6-dioxopiperidin-3-yl]-1,3-dioxo-2,3-dihydro-1H-isoindol-5-yl}-2,7-diazaspiro[3.5]nonan-7-yl)acetyl]piperidin-4-yl}-5-[2-(methylamino)pyrimidin-4-yl]-1,3-thiazol-4-yl)-2-fluorophenyl]propane-1-sulfonamide] | > 500 nM | 30 to 70% | < 10 nM | 30 to 70% | < 10 nM | > 70% | > 500 nM | 30 to 70% | – | – | – | – | – | – | – | – |
